In data set [1] the test system is DRG neuronal explant cultures. The data set is described as follows: in vitro Wallerian degeneration assay, DRG explant neurite transection. It is filed as cell-based, mouse. The conditions noted are these: lentivirus-mediated expression in DRG neurons. As to the method: To identify the mechanism of delayed axonal degeneration mediated by the Wlds protein, we employed an in-vitro Wallerian degeneration model. Primary DRG explant neurons were infected with lentivirus expressing the appropriate proteins, and axons were injured by either removal of the neuronal cell body (transection) or growth in vincristine (toxic).
Mouse DRG explants from E12.5 embryos were cultured in the presence of 1 nM nerve growth factor. Non-neuronal cells were removed from the cultures by adding 5-fluorouracil to the culture medium. Transection of neurites was performed at 10-20 DIV using an 18-gauge needle to remove the neuronal cell bodies. Incubation with β-nicotinamide adenine dinucleotide (Sigma) or Sirtinol (Calbiochem) was performed using conditions indicated in the text or figures.
Quantitative analysis of axonal degeneration was performed as previously described (Zhai, et al., Neuron 39:217-25, 2003). Briefly, the cultures were examined using phase contrast microscopy at the indicated times. Axons with a fragmented, non-refractile appearance were designated as “degenerated.” At each time point, at least 200 singly distinguishable axons were blindly scored from several randomly taken images of each culture. Each condition was tested in triplicate explants in each experiment. Results were obtained from 2-4 independent experiments for each condition. Statistical analysis was performed by Student's T test. For calculations of neurite-covered area, digitally captured images from quadruplicate samples of two independent experiments were analyzed using analysis 3.1 software (Soft Imaging System, Lakewood, Colo.).
Cell culture, in vitro axotomy, and quantification of axonal degeneration. Mouse DRG explants from E12.5 embryos were cultured in the DMEM containing 10% FCS and 1 nM nerve growth factor. Non-neuronal cells were removed from the cultures by adding 5-fluorouracil to the culture media. Transection of neurites was performed at 14-21 DIV using an 18-gauge needle to remove the neuronal cell bodies. Lentiviral expression vectors were generated. Lentiviral infection was performed 3-7 days prior to axonal transection for 24 hr. Quantitative analysis of neurite degeneration was performed.

Data set [2] is described as follows: NMNAT enzymatic assay (NAD production). It is filed as biochemical. The conditions noted are these: protein from HEK293/HEK293T cells; NAD generated in 1 h. As to the method:
[…]
NMNAT protein overexpression, affinity purification and enzymatic assay. […] Relative NMNAT enzymatic activity was measured by using affinity purified proteins as described before and subtracted the value obtained from mock transfected cells and normalized by the amount of recombinant protein determined by densitometry.

In the case of “NMNAT3: murine nicotinamide mononucleotide adenylyltransferase3”, the “axonal/neurite degeneration after transection” value in data set [1] is “same extent of delay in neurite degeneration as well as NMNAT1”. For the same substance, the “NMNAT enzymatic activity (NAD synthesis)” value in data set [2] was “comparable enzymatic activity compared with NMNAT1”.

The values are drawn from patent publication US20160367497A1, “METHODS AND COMPOSITIONS FOR TREATING NEUROPATHIES” (Washington University, priority 2007, published 2016).
